Source: paper PMC6494879, “Drug resistance emergence in macaques administered cabotegravir long-acting for pre-exposure prophylaxis during acute SHIV infection” (Nature Communications, 2019)
Like-named read-outs stand apart in the source and are kept apart here.

Tests used:
[1] = tested on: SIV integrase I250V (SIV IN RTV pseudovirus); test: organism not typed; type: cell-based
HIV-1 = details: read-out: 50% inhibitory concentration (IC50); cited from earlier work
[2] = tested on: SIV integrase WT (SIV IN RTV pseudovirus); test: organism not typed; type: cell-based
[3] = tested on: SIV integrase G118R (SIV IN RTV pseudovirus); type: cell-based; details: G118R SIV integrase mutant
[4] = tested on: SIV integrase A122T (SIV IN RTV pseudovirus); test: organism not typed; type: cell-based
[5] = tested on: SIV integrase G118R/A122T (SIV IN RTV pseudovirus); type: cell-based; details: G118R/A122T SIV integrase mutant
[6] = tested on: SIV integrase E92Q/G140R (SIV IN RTV pseudovirus); type: cell-based; details: E92Q/G140R SIV integrase mutant
in vivo = details: Indian, rhesus monkey
Experimental: (§1) CAB LA (200 mg/mL injectable stock aqueous suspension) was given at a dose of 50 mg kg^−1 under anesthesia by intramuscular injection into the quadriceps. Volumes greater than 1.0 mL were divided into two injection sites.

[7] = tested on: SIV integrase I110V (SIV IN RTV pseudovirus); test: organism not typed; type: cell-based
[8] = tested on: SIV integrase G140R (SIV IN RTV pseudovirus); test: organism not typed; type: cell-based; details: HEK293
[9] = time course, day given in the Days column, CAB LA 50 mg/kg i.m. days 11, 39, 67, LLOQ 10 ng ml^-1
Experimental: as §1

[10] = tested on: SIV integrase E92G (SIV IN RTV pseudovirus)
[11] = tested on: SIV integrase E92Q (SIV IN RTV pseudovirus); type: cell-based; details: E92Q SIV integrase mutant
[12] = tested on: SIV integrase Q124R (SIV IN RTV pseudovirus); test: organism not typed; type: cell-based
[13] = ECLAIR trial; cited from earlier work

Question: Which results are given for C[C@H]1CO[C@@H]2Cn3cc(C(=O)NCc4ccc(F)cc4F)c(=O)c(O)c3C(=O)N12 [CAB, cabotegravir]?
Answer: EC50 ([1]; HEK293): 1.04 nM; fold-change relative to wild type integrase ([1]; {}): 0.9 fold; IC50 (HIV-1): ~0.22 nM; EC50 ([2]; HEK293): 1.19 nM; fold-change relative to wild type integrase ([2]; WT SIV integrase): 1 fold; fold-change relative to wild type integrase [3]: > 840 fold; EC50 ([4]; HEK293): 1.51 nM; fold-change relative to wild type integrase ([4]; {}): 1.3 fold; fold-change relative to wild type integrase [5]: > 840 fold; fold-change relative to wild type integrase [6]: > 840 fold; half-life (in vivo): 10.7 days; EC50 ([7]; HEK293): 1.27 nM; fold-change relative to wild type integrase ([7]; {}): 1.1 fold; EC50 [8]: > 1000 nM; Vaginal fluid CAB concentration in treated macaques ([9]; macaque 10D181): 0.009 µg/mL; Vaginal fluid CAB concentration in treated macaques ([9]; macaque 33996): 0.009 µg/mL; EC50 [10]: 4.2 nM; fold-change relative to wild type integrase [10]: 3.5 fold; fold-change relative to wild type integrase [11]: 2.5 fold; EC50 ([12]; HEK293): 1.22 nM; fold-change relative to wild type integrase ([12]; {}): 1.0 fold; subjects with CAB still detectable 52 weeks after the last injection [13]: 14%
